This note sets out measurements from ChEMBL document CHEMBL1201862, “PubChem BioAssay data set” (2004).

The target of assay [1] is T1, Eukaryotic translation initiation factor 2-alpha kinase 3 (Homo sapiens, UniProt Q9NZJ5).
T1 sequence (Q9NZJ5 whole entry): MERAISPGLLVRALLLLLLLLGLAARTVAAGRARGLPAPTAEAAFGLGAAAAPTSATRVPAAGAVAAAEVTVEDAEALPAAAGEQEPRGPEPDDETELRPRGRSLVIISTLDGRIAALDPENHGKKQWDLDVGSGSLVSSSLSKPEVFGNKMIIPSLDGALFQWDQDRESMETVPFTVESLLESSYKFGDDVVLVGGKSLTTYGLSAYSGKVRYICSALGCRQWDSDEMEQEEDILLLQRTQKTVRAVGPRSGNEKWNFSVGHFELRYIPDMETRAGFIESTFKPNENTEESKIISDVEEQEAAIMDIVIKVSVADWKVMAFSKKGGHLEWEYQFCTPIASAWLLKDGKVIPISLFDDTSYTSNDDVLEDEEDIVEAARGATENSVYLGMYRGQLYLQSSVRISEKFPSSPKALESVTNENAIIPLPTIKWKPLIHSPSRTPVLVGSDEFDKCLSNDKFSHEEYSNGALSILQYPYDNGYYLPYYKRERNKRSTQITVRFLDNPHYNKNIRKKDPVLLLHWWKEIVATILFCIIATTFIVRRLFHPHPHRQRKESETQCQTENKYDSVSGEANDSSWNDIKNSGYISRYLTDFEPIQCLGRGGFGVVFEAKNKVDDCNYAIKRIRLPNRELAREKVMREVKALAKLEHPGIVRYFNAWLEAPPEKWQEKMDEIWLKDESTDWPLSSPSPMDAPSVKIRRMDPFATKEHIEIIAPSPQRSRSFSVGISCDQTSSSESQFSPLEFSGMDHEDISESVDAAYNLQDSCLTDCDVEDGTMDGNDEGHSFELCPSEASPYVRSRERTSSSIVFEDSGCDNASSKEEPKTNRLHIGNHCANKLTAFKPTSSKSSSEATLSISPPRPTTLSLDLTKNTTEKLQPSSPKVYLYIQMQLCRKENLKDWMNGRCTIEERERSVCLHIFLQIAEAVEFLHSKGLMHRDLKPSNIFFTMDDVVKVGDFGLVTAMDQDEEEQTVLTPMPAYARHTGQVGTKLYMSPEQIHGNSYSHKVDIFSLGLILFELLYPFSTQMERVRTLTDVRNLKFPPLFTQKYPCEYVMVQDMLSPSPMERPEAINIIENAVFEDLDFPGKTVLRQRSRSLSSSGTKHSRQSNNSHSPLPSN
The assay is described as follows: Dose response cell-based high-throughput screening assay to measure PERK inhibition. [Related pubchem assays: 1416 ]. It counts as functional.

The target in assay [2] is T1, Eukaryotic translation initiation factor 2-alpha kinase 3. The assay is described as follows: Counterscreen assay for PERK inhibitors: Dose response cell-based high throughput screening assay to measure inhibition of PERK at 6 hours. [Related pubchem assays: 1522, 1416 ]. Format: functional. On the technique in general: The purpose of a counterscreen is to sort out artefacts and off-target activity.

The subject of assay [3] is Streptococcus sp. 'group A'. Nature of the assay: growth inhibition of control SK(-) GAS strain, dose response, counter-screen for streptokinase expression inhibitor project, luminescence, kanamycin, BacTiterGlo, confirmation (AID 1900). It counts as functional, organism-based.
A short description of assay [4]: Counterscreen for IDE inhibitors: Luminescence-based cell-based high throughput dose response assay to identify compounds that are cytotoxic to HEK cells. [Related pubchem assays: 434962 (Primary screen (IDE inhibitors in singlicate)), 449730 (Counterscreen (Cytotoxicity in triplicate)), 435028 (Confirmation (IDE inhibitors in triplicate)) …. Particulars: HEK293. It counts as functional.

Another assay addresses T2, Streptokinase A (Streptococcus pyogenes serotype M1, UniProt P10520).
T2 sequence (P10520 whole entry): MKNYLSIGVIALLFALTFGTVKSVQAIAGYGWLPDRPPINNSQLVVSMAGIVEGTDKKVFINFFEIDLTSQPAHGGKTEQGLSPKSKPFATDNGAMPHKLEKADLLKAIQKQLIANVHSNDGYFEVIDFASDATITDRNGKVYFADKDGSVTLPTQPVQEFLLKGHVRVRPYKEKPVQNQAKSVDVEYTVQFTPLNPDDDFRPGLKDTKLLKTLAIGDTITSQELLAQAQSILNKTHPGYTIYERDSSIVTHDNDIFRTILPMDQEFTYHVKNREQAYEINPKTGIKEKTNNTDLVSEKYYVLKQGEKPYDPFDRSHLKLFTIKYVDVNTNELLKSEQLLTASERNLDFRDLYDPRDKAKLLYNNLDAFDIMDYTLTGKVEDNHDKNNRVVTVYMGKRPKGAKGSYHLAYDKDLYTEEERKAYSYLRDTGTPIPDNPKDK
The assay is described as follows: S. pyogenes streptokinase expression inhibitors, potency, dose response, plasminogen activation absorbance, OD405 (AID 1914).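 Also: secreted streptokinase activity via plasminogen activation per viability signal from cell pellet.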 It counts as functional, Streptococcus pyogenes M1 GAS.

The next assay has as its target Large T antigen (Simian virus 40, UniProt P03070). Format: functional, Betapolyomavirus macacae.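 Also: Confirmatory-stage PubChem screen for compounds that inhibit SV40 T antigen.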
In the next assay the target is Insulin-degrading enzyme (Homo sapiens, UniProt P14735). Nature of the assay: Dose Response: Fluorescence polarization-based cell-based high throughput dose response assay for inhibitors of insulin-degrading enzyme (IDE). [Related pubchem assays: 434962 (Primary screen (IDE inhibitors in singlicate)), 449730 (Counterscreen (Cytotoxicity in triplicate)), 435028 (Confirmation (IDE inhibitors in triplicate)), 434984 (Summary …. Format: functional. (In fluorescence polarisation assays a small probe gives low polarisation when free and higher when bound to something large.)
Insulin-degrading enzyme, sequence (P14735 whole entry): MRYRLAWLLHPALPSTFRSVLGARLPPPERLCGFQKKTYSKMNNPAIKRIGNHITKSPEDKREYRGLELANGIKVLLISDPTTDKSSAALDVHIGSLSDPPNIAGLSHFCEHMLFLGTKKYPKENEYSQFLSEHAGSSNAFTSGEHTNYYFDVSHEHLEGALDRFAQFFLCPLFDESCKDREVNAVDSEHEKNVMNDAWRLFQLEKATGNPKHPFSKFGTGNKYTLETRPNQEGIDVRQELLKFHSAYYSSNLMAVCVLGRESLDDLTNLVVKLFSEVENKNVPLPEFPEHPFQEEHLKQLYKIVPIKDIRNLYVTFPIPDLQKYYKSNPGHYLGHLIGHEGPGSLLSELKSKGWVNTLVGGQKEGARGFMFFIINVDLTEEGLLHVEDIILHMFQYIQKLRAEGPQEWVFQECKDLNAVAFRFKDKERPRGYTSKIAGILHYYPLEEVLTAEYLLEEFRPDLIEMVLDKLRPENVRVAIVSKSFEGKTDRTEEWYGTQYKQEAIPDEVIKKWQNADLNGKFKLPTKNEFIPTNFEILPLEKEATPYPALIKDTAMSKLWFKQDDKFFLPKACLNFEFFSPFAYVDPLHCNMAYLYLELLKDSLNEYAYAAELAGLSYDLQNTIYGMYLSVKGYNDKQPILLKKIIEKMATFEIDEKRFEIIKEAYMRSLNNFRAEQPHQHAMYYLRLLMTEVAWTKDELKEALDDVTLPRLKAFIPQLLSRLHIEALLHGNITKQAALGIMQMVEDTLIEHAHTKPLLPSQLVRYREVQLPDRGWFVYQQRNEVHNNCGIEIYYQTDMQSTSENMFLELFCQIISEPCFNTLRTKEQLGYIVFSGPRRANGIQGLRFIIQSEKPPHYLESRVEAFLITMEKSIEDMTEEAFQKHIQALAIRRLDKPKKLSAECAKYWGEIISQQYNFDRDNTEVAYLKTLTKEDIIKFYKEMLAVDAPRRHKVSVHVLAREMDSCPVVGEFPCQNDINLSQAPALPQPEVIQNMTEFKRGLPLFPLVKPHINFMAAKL

A further assay deals with Streptococcus. Nature of the assay: Group A Streptococcus viability loss, dose response, counter-screen for streptokinase expression inhibitor project, luminescence, BacTiterGlo (AID 1915).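 Also: potency for reduction of bacterial viability or growth.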 Format: functional, organism-based.
Assay [5] addresses T3, Mannose-6-phosphate isomerase (Homo sapiens, UniProt P34949).
T3 sequence (P34949 whole entry): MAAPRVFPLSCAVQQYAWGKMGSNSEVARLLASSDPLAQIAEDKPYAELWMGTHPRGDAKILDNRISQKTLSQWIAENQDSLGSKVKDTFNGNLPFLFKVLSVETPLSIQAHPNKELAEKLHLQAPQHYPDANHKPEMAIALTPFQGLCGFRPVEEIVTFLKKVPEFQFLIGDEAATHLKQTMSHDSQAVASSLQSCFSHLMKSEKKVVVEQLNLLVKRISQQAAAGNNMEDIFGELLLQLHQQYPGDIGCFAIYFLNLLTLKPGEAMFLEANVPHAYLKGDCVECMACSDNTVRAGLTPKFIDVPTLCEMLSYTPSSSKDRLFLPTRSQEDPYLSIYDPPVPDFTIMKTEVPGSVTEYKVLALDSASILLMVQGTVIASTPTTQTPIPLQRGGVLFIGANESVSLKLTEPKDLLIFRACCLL
The assay is described as follows: PMI enzyme inhibitors, confirmation, biochemical, fluorescence intensity (AID 1535).

Assay [6] concerns the target DNA dC->dU-editing enzyme APOBEC-3A (Homo sapiens, UniProt P31941). The assay is described as follows: APOBEC3A DNA deaminase inhibitors, dose response, biochemical (AID 504722). It counts as functional.
Another assay has as its target T4, Phosphomannomutase 2 (Homo sapiens, UniProt O15305).
T4 sequence (O15305 whole entry): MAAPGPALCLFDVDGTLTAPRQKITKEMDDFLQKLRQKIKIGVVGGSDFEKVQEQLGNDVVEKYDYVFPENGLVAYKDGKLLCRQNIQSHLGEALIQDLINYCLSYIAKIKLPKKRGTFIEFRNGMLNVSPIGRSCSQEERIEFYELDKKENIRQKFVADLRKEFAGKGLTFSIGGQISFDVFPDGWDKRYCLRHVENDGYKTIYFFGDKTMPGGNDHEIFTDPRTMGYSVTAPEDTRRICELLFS
The assay is described as follows: Counter screen SAR assay for PMM2 inhibitors via a fluorescence intensity assay. [Related pubchem assays (depositor defined):AID1545, AID1574].

In assay [7] the target is T5, Phosphoethanolamine/phosphocholine phosphatase (Homo sapiens, UniProt Q8TCT1).
T5 sequence (Q8TCT1 whole entry): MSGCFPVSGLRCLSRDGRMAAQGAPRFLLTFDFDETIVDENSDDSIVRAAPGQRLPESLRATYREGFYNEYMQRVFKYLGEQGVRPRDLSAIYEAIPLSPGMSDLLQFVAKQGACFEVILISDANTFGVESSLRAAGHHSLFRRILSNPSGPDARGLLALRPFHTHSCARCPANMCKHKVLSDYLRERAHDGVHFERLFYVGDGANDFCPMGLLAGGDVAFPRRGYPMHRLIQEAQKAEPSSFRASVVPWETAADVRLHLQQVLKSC
Nature of the assay: SAR assay for compounds that inhibit PHOSPHO1. [Related pubchem assays (depositor defined):AID1545, AID1565, AID1574].

Assay [8] deals with Eukaryotic translation initiation factor 4E (Mus musculus, UniProt P63073). Nature of the assay: eIF4E–eIF4G protein interaction inhibitors, dose response, biochemical, TR-FRET (AID 855).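 Also: potency for disrupting eIF4E binding to eIF4GI seen as loss of FRET.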 Format: functional.
Eukaryotic translation initiation factor 4E, sequence (P63073 whole entry): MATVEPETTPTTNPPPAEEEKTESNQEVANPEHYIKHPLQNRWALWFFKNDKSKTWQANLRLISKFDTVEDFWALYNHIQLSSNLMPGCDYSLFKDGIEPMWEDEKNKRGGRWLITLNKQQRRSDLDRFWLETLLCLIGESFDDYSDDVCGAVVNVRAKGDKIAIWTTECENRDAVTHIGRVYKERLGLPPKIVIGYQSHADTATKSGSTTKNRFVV
The target of assay [9] is DNA dC->dU-editing enzyme APOBEC-3G (Homo sapiens, UniProt Q9HC16). The assay is described as follows: Dose Response confirmation of small molecule APOBEC3G DNA Deaminase Inhibitors via a fluorescence-based single-stranded DNA deaminase assay. [Related pubchem assays (depositor defined):AID493012, AID493028]. Format: functional.
DNA dC->dU-editing enzyme APOBEC-3G, sequence (Q9HC16 whole entry): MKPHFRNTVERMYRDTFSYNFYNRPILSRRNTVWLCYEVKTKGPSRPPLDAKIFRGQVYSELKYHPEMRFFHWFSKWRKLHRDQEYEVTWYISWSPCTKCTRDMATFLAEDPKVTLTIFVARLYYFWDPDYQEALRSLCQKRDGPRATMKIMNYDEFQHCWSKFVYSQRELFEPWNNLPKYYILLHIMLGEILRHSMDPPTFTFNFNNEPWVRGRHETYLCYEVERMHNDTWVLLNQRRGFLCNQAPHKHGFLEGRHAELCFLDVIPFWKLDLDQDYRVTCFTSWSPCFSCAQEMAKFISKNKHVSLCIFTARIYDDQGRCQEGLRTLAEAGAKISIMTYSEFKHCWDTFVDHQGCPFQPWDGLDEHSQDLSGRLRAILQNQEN
For the next assay, the target named is Bcl-2-like protein 10 (Homo sapiens, UniProt Q9HD36). The assay is described as follows: displacers of TR3 peptide from Bcl-B, primary screen, selectivity assay for Bfl-1 inhibitor project, biochemical, fluorescence polarization, FITC-TR3 peptide (AID 748).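 Also: fluorescence polarization from a fluorescein-labelled TR3 peptide binding purified Bcl-B.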
Bcl-2-like protein 10, sequence (Q9HD36 whole entry): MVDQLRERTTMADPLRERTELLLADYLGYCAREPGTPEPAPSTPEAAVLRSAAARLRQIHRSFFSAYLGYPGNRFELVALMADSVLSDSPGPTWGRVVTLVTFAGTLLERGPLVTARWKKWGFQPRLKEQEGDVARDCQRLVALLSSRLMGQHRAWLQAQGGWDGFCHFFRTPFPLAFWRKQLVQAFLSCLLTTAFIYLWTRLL
The next assay concerns the target CAAX prenyl protease 2 (Saccharomyces cerevisiae S288c, UniProt Q03530). It counts as biochemical.
The next assay has as its target T6, Hexokinase HKDC1 (Homo sapiens, UniProt Q2TB90).
T6 sequence (Q2TB90 whole entry): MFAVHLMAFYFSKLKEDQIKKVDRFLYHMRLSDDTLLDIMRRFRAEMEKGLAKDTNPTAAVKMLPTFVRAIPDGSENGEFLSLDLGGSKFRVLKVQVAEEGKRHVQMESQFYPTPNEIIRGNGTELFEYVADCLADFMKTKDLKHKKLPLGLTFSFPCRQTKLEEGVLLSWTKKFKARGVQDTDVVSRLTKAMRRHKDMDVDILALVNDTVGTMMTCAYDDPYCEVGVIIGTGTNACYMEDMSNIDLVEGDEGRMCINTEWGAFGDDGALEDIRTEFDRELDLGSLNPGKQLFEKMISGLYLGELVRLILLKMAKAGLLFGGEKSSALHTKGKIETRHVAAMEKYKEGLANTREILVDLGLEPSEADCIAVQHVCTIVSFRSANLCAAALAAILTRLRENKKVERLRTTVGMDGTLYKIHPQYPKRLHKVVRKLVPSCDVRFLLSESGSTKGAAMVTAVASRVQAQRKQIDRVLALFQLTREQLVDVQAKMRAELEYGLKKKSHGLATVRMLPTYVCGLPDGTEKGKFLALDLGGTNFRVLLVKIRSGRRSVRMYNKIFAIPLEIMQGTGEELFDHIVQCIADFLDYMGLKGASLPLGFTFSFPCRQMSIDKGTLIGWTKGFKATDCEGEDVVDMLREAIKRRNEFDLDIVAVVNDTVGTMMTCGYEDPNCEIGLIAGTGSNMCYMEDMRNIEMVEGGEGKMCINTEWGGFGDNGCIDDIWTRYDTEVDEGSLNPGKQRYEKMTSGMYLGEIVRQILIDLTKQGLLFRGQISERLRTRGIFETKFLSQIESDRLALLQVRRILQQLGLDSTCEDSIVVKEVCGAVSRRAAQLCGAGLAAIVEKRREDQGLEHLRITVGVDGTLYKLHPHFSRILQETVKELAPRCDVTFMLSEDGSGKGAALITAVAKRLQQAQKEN
The assay is described as follows: HKDC1 hexokinase inhibitors, dose response, biochemical, W721R variant (AID 504729). Format: functional.

Assay [10] has as its target G-protein coupled receptor 35 (Homo sapiens, UniProt Q9HC97). Nature of the assay: SAR analysis of Antagonists of the GPR35 Receptor using an Image-Based Assay - Set 5. [Related pubchem assays (depositor defined):AID2058, AID2079]. Format: functional.
For assay [11], the target named is G-protein coupled receptor 55 (Homo sapiens, UniProt Q9Y2T6). Nature of the assay: SAR Analysis of Selective Antagonists of GPR55 using an Image-Based Assay - Set 3. [Related pubchem assays (depositor defined):AID2058, AID2079]. Format: functional.
G-protein coupled receptor 55, sequence (Q9Y2T6 whole entry): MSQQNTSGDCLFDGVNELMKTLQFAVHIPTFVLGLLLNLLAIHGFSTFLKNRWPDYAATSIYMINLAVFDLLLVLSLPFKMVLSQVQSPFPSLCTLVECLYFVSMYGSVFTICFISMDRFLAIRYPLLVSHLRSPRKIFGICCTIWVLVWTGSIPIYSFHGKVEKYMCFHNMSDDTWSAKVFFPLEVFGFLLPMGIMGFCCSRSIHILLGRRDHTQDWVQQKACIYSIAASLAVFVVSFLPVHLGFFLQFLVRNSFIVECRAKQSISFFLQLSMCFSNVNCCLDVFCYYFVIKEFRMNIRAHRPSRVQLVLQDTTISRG

The structures appear in SMILES notation. Active and inactive are the calls of the source.

DNA dC->dU-editing enzyme APOBEC-3A, sequence (P31941 whole entry): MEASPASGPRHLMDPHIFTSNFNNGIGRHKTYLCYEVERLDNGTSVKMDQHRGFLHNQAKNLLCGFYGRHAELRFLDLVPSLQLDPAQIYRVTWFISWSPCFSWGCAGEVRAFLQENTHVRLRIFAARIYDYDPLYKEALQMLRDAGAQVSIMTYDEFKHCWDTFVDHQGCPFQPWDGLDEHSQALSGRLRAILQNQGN
G-protein coupled receptor 35, sequence (Q9HC97 whole entry): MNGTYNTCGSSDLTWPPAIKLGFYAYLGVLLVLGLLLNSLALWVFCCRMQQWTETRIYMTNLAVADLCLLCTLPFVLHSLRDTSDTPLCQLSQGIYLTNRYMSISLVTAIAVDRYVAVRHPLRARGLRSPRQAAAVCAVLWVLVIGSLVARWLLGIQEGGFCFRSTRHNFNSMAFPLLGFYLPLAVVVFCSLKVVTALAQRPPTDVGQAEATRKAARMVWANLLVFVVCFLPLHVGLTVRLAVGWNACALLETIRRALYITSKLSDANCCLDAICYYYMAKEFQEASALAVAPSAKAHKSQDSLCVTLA
Large T antigen, sequence (P03070 whole entry): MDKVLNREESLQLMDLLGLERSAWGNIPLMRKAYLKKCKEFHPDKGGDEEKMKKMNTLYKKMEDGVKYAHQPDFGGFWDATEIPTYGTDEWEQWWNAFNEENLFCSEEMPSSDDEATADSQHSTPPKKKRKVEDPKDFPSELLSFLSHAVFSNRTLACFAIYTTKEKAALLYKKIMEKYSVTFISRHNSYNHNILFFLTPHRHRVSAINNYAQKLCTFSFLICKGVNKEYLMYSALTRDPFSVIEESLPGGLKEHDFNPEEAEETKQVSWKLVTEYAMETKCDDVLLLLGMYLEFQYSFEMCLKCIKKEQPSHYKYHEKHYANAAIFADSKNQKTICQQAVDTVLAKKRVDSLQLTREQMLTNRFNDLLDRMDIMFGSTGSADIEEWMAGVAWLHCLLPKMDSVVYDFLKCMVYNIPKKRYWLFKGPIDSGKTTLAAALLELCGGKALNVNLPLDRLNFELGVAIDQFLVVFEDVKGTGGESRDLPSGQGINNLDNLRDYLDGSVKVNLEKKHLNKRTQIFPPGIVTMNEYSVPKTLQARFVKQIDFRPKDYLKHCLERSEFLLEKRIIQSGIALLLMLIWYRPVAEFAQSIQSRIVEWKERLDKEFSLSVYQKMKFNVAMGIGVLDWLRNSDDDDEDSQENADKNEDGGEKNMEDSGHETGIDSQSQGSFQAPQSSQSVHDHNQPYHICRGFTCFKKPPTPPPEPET
CAAX prenyl protease 2, sequence (Q03530 whole entry): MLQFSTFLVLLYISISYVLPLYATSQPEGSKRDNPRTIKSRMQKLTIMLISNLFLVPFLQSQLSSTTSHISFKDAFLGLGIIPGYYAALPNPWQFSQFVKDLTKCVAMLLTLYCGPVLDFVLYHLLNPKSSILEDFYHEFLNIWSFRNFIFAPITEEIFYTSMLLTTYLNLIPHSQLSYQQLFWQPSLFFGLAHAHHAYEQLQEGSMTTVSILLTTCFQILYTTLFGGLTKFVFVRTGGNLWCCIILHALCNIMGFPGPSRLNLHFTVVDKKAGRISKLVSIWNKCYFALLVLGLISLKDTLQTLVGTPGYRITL

As usually defined, the EC50 is the concentration giving half of the maximal effect. In the case of `COc1ccc(-c2csc(NC(=O)CSc3nc(C)cs3)n2)cc1`, the EC50 in assay [1] and in assay [2] was > 55.7 µM (not active) each time.
In general, IC50 refers to the concentration that inhibits the measured activity by half. Consider `O=c1c2ccccc2sn1-c1cc(S(=O)(=O)N2CCOCC2)ccc1N1CCOCC1`, for which the EC50 is 10.2 µM (active) in assay [3], > 150 µM (not active) on Streptokinase A and > 150 µM (not active) in the assay with Streptococcus. Further, the IC50 was 11 µM (not active) in assay [4]; 13.2 µM (active) on Large T antigen; 1.44 µM (active) on Insulin-degrading enzyme; 2.6 µM (active) in [5]; > 100 µM (inactive) in assay [6]; 9.87 µM (active) at Phosphomannomutase 2. For the same compound, the results for the IC50 in [7], in [8] and in assay [9] were 1.27 µM (inactive), 5.36 µM (active) and 14 µM (active), respectively.
In the case of `COc1ccc(NC(=O)C2CCN(c3nc(C)nc4c3CCC4)CC2)cc1`, the IC50 at Bcl-2-like protein 10 is 33.8 µM (active).
As for `CC(=O)c1cc2c(cc1N)OCO2`, the EC50 in assay [1] and in assay [2] was > 55.7 µM (not active) in each case.
Usually AC50 stands for the concentration at which the activity in the assay is half-maximal. As to `COc1ccc(NS(=O)(=O)c2ccc3oc(=O)c4[nH]c(=O)c(=O)n(C)c4c3c2)cc1`, on CAAX prenyl protease 2, the concentration at half-maximal activity (AC50) is 22.7 µM (active).
For the compound `CCc1nc2sc3c(O)ncnc3c2c2c1CSC(C)(C)C2`, the IC50 on Hexokinase HKDC1 was 26 µM (inactive).
On to `NC(=S)N/N=C/c1c[nH]nc1-c1ccccc1`, for which the IC50 in assay [10] and in [11] was > 32 µM (inactive) throughout.
Take `COc1cccc(/C=N/n2c(S)nnc2-c2cc(C)[nH]n2)c1`: the IC50 in assay [6] was > 100 µM (inactive); in assay [9] it was 5.19 µM (active).
